In patent publication US20250296937A1, “CYCLIC BISBENZYL TETRAHYDROISOQUINOLINE COMPOUND, AND PREPARATION METHOD THEREFOR AND USE THEREOF” (Shanghai Institute of Materia Medica, Chinesse Academy of …, priority 2021, published 2025):

How the values were obtained:
[1] = cited from earlier work
[2] = test system: 2019 novel coronavirus (SARS-CoV-2) original strain; assay: Replication inhibitory activity against SARS-CoV-2 original strain in Vero E6 cells (qRT-PCR); type: cell-based
[3] = test system: Vero E6 cells; assay: Cytotoxicity test on Vero E6 cells (CCK8); type: cell-based; conditions: inventors' screening of natural products
Experimental: In this embodiment, the half toxicity concentration of each embodiment on Vero E6 cells was determined by CCK8 kit analysis (CC50).

In the case of COc1cc2c3cc1Oc1c(OC)c(OC)cc4c1[C@H](Cc1ccc(cc1)Oc1cc(ccc1O)C[C@H]3N(C)CC2)N(C)CC4 [Oxyacanthine, oxyacanthine, reference compound], the “solubility in ethanol, chloroform, ether, dilute acid” value ([1]; ethanol, chloroform, ether, dilute acid) is listed as “soluble”, the solubility in water ([1]; water) is listed as “almost insoluble” and the “antiviral activity against novel coronaviruses (background statement)” value [2] is listed as “weak antiviral activity”. The “cytotoxicity (background statement)” value [3] was “high cytotoxicity”.
